# Measured values published in US6680336B2, “Cyclic AMP-specific phosphodiesterase inhibitors” (ICOS Corporation, priority 1999, dated 2004).
# pEC50, pIC50: −log10 of the molar value.
# Tests used:
# [1] = biological target: T1, recombinant human PDE4; test: PDE4 inhibition, charcoal separation [32P]cAMP phosphodiesterase assay; assay type: biochemical
# T1 construct: PDE4 IC50; other: human recombinant PDE4
# Method: The compounds of structural formula (II) were tested for an ability to inhibit PDE4. The ability of a compound to inhibit PDE4 activity is related to the IC50 value for the compound, i.e., the concentration of inhibitor required for 50% inhibition of enzyme activity. The IC50 value for compounds of structural formula (II) were determined using recombinant human PDE4.
# Recombinant production of human PDE1B, PDE2, PDE4A, PDE4B, PDE4C, PDE4D, PDE5, and PDE7 was carried out similarly to that described in Example 7 of U.S. Pat. No. 5,702,936, incorporated herein by reference, except that the yeast transformation vector employed, which is derived from the basic ADH2 plasmid described in Price et al., Methods in Enzymology, 185, pp. 308-318 (1990), incorporated yeast ADH2 promoter and terminator sequences and the Saccharomyces cerevisiae host was the protease-deficient strain BJ2-54 deposited on Aug. 31, 1998 with the American Type Culture Collection, Manassas, Va., under accession number ATCC 74465. Transformed host cells were grown in 2×SC-leu medium, pH 6.2, with trace metals, and vitamins. After 24 hours, YEP medium-containing glycerol was added to a final concentration of 2×YET/3% glycerol. Approximately 24 hr later, cells were harvested, washed, and stored at −70° C.
# Phosphodiesterase activity of the preparations was determined as follows. PDE assays utilizing a charcoal separation technique were performed essentially as described in Loughney et al. (1996). In this assay, PDE activity converts [32P]cAMP or [32P]cGMP to the corresponding [32P]5′-AMP or [32P]5′-GMP in proportion to the amount of PDE activity present. The [32P]5′-AMP or [32P]5′-GMP then was quantitatively converted to free [32P]phosphate and unlabeled adenosine or guanosine by the action of snake venom 5′-nucleotidase. […] The assay was performed at 30° C. in a 100 μL reaction mixture containing (final concentrations) 40 mM Tris HCl (pH 8.0), 1 μM ZnSO4, 5 mM MgCl2, and 0.1 mg/mL bovine serum albumin (BSA). Alternatively, in assays assessing PDE1-specific activity, incubation mixtures further incorporated the use of 0.1 mM CaCl2 and 10 μg/mL calmodulin. PDE enzyme was present in quantities that yield <30% total hydrolysis of substrate (linear assay conditions). The assay was initiated by addition of substrate (1 mM [32P]cAMP or cGMP), and the mixture was incubated for 12 minutes. Seventy-five (75) μg of Crotalus atrox venom then was added, and the incubation was continued for 3 minutes (15 minutes total). The reaction was stopped by addition of 200 μL of activated charcoal (25 mg/mL suspension in 0.1 M […], pH 4). After centrifugation (750×g for 3 minutes) to sediment the charcoal, a sample of the supernatant was taken for radioactivity determination in a scintillation counter and the PDE activity was calculated.
# Inhibitor analyses were performed similarly to the method described in Loughney et al., J. Biol. Chem., 271, pp. 796-806 (1996), except both cGMP and cAMP were used, and substrate concentrations were kept below 32 nM, which is far below the Km of the tested PDEs.
# [2] = tested on: TNFα secretion in human peripheral blood lymphocytes; test: Lipopolysaccharide-stimulated TNFα release from human peripheral blood lymphocytes; assay type: cell-based; settings: Lymphocyte; LPS-stimulated TNFα release from human PBL
# Method: The compounds of structural formula (II) also were tested for an ability to reduce TNFα secretion in human peripheral blood lymphocytes. The ability to reduce TNFα secretion is related to the EC50 values i.e., the effective concentration pf the compound capable of inhibiting 50% of the total TNFα).
# To assess the ability of a compound to reduce TNFα secretion in human peripheral blood lymphocytes (PBL), the following tests were performed.
# Heparinized blood (approximately 30 mL) drawn from human volunteers was mixed 1:1 with Dulbecco's modified phosphate-buffered saline. This mixture was mixed 1:1 with HISTOPAQUE® and centrifuged at 1,500 rpm at room temperature without braking in the swinging bucket of a Beckman model TJ6 centrifuge. Erythrocytes were centrifuged to the bottom of the tubes, and serum remained at the surface of the tubes. A layer containing lymphocytes sedimented between the serum and HISTOPAQUE® layers, and was removed by aspiration to a fresh tube. The cells were quantified and adjusted to […] and a 100 μL aliquot is placed into the wells of a 96 well plate. Test compounds and RPMI media (Gibco/BRL Life Sciences) are added to each of the wells 15 minutes prior to addition of bacterial LPS ([…]). The mixture was allowed to incubate for 20 hours at 37° C. in a humidified chamber. The cells then were separated by centrifuging at 800 rpm for 5 minutes at room temperature. An aliquot of 180 μL of supernatant was transferred to a new plate for determination of TNFα concentration. TNFα protein in the cell supernatant fluids was measured using a commercially available enzyme-linked immunosorbent assay (ELISA) (CYTOSCREEN® Immunoassay Kit from Biosource International).
# The cell-based assay provided the following results for various pyrrolidine compounds of the present invention. The EC50 values (i.e., effective concentration of the compound capable of inhibiting 50% of the total TNFα) illustrate the ability of the present compounds to inhibit LPS-stimulated TNFα release from human PBL.
smiles,measurement,setting,value
"COC(=O)N1C[C@@H](c2ccc(OC)c(OC3CCCC3)c2)[C@](C)(CNCc2ccccc2)C1 [Example 1, Methyl (4S,3R)-4-(3-cyclopentyloxy-4-methoxyphenyl)-3-methyl-3-{[benzylamino]methyl]}pyrrolidine carboxylate]",pIC50,[1],5.85
same,pEC50,[2],6.11
"COC(=O)N1C[C@@H](c2ccc(OC)c(OC3CCCC3)c2)[C@](C)(CN)C1 [Example 2, Methyl (4S,3R)-3-(aminomethyl)-4-(3-cyclopentyloxy-4-methoxyphenyl)-3-methylpyrrolidinecarboxylate]",pIC50,[1],7.55
same,pEC50,[2],6.85
COC(=O)N1CC(c2ccc(OC)c(OC3CCCC3)c2)[C@](C)(CNS(C)(=O)=O)C1 (stereo partly drawn) [Example 3],pIC50,[1],5.50
"COC(=O)N1C[C@@H](c2ccc(OC)c(OC3CCCC3)c2)[C@](C)(CNC(C)=O)C1 [Example 4, Methyl (4S,3R)-3-[(acetylamino)methyl]-4-(3-cyclopentyloxy-4-methoxyphenyl)-3-methylpyrrolidine-carboxylate]",pIC50,[1],5.51
"COC(=O)N1C[C@@H](c2ccc(OC)c(OC3CCCC3)c2)[C@](C)(CNC(=O)c2ccccc2)C1 [Example 5, Methyl (4S,3R)-4-(3-cyclopentyloxy-4-methoxyphenyl)-3-methyl-3-[(phenylcarbonylamino)methyl]pyrrolidinecarboxylate]",pIC50,[1],5.60
COC(=O)N1CC(c2ccc(OC)c(OC3CCCC3)c2)[C@](C)(CNS(=O)(=O)c2ccccc2)C1 (stereo partly drawn) [Example 6],pIC50,[1],6.30
same,pEC50,[2],6.14
"COc1ccc([C@@H]2CN(Cc3ccccc3)C[C@@]2(C)C(C)N)cc1OC1CCCC1 (stereo partly drawn) [Example 8, 1-[(3S,4S)-4-(3-Cyclopentyloxy-4-methoxyphenyl)-3-methyl-1-benzylpyrrolidin-3-yl]ethylamine]",pIC50,[1],6.17
same,pEC50,[2],5.81
"COc1ccc([C@@H]2CN(Cc3ccccc3)C[C@@]2(C)C(C)NC(=O)c2ccccc2)cc1OC1CCCC1 (stereo partly drawn) [Example 10, N-{1-[(3S,4S)-4-(3-Cyclopentyloxy-4-methoxyphenyl)-3-methyl-1-benzylpyrrolidin-3-yl]ethyl}benzamide]",pIC50,[1],5.53
"COc1ccc([C@@H]2CN(Cc3ccccc3)C[C@@]2(C)C(C)NC(=O)c2ccccc2)cc1OC1CCCC1 (stereo partly drawn) [Example 11, N-{1-[(3S,4S)-4-(3-Cyclopentyloxy-4-methoxyphenyl)-3-methyl-1-benzylpyrrolidin-3-yl]ethyl}benzamide]",pIC50,[1],4.57
"COc1ccc([C@@H]2CN(Cc3ccccc3)C[C@@]2(C)C(C)NC(C)=O)cc1OC1CCCC1 (stereo partly drawn) [Example 12, N-{1-[(3S,4S)-4-(3-Cyclopentyloxy-4-methoxyphenyl)-3-methyl-1-benzylpyrrolidin-3-yl]ethyl}acetamide]",pIC50,[1],4.83
"COc1ccc([C@@H]2CN(Cc3ccccc3)C[C@@]2(C)C(C)NC(C)=O)cc1OC1CCCC1 (stereo partly drawn) [Example 13, N-{1-[(3S,4S)-4-(3-Cyclopentyloxy-4-methoxyphenyl)-3-methyl-1-benzylpyrrolidin-3-yl]ethyl}acetamide]",pIC50,[1],5.61
"COC(=O)N1C[C@@H](c2ccc(OC)c(OC3CCCC3)c2)[C@](C)(C(C)NC(C)=O)C1 (stereo partly drawn) [Example 14, 3-(S)-(1-Acetylaminoethyl)-4-(S)-(3-cyclopentyloxy-4-methoxyphenyl)-3-methylpyrrolidine-1-carboxic Acid Methyl Ester]",pEC50,[2],6.22
"COc1ccc([C@@H]2CN(Cc3ccccc3)C[C@@]2(C)C(C)NS(=O)(=O)c2ccccc2)cc1OC1CCCC1 (stereo partly drawn) [Example 15, {1-[(3S,4S)-4-(3-Cyclopentyloxy-4-methoxyphenyl)-3-methyl-1-benzylpyrrolidin-3-yl]ethyl}-(phenylsulfonyl)amine]",pIC50,[1],5.05
"COc1ccc(C2CN(Cc3ccccc3)C[C@@]2(C)C(C)NS(=O)(=O)c2ccccc2)cc1OC1CCCC1 (stereo partly drawn) [Example 16, {1-[(3S,4S)-4-(3-cyclopentyloxy-4-methoxyphenyl)-3-methyl-1-benzylpyrrolidin-3-yl]ethyl}-(phenylsufonyl)amine]",pIC50,[1],5.04
"COc1ccc([C@@H]2CN(Cc3ccccc3)C[C@@]2(C)C(C)NS(C)(=O)=O)cc1OC1CCCC1 (stereo partly drawn) [Example 17, {1-[(3S,4S)-4-(3-Cyclopentyloxy-4-methoxyphenyl)-3-methyl-1-benzylpyrrolidin-3-yl]ethyl}-(methylsulfonyl)amine]",pIC50,[1],5.06
"COc1ccc([C@@H]2CN(Cc3ccccc3)C[C@@]2(C)C(C)NS(C)(=O)=O)cc1OC1CCCC1 (stereo partly drawn) [Example 18, {1-[(3S,4S)-4-(3-Cyclopentyloxy-4-methoxyphenyl)-3-methyl-1-benzylpyrrolidin-3-yl]ethyl}-(methylsulfonyl)amine]",pIC50,[1],5.13
COC(=O)N1C[C@@H](c2ccc(OC)c(OC3CCCC3)c2)[C@](C)(CNC(=O)OC(C)(C)C)C1 [Example 21],pIC50,[1],5.66
COc1ccc(C2CN(Cc3ccccc3)C[C@]2(C)CN(C)C)cc1OC1CCCC1 (stereo partly drawn) [Example 22],pIC50,[1],5.23
CNC[C@]1(C)CN(Cc2ccccc2)CC1c1ccc(OC)c(OC2CCCC2)c1 (stereo partly drawn) [Example 23],pIC50,[1],5.12
COC(=O)N1C[C@@H](c2ccc(OC)c(OC3Cc4ccccc4C3)c2)[C@](C)(CN)C1 [Example 24],pIC50,[1],7.64
same,pEC50,[2],7.12
COC(=O)N1C[C@@H](c2ccc(OC)c(OCC3CC3)c2)[C@](C)(CN)C1 [Example 25],pIC50,[1],7.28
same,pEC50,[2],7.07
COc1ccc([C@@H]2CN(C(=O)C(C)(C)O)C[C@@]2(C)CN)cc1OCC1CC1 [Example 26],pIC50,[1],6.63
same,pEC50,[2],6.35
COc1ccc([C@@H]2CN(C(=O)CO)C[C@@]2(C)CN)cc1OCC1CC1 [Example 27],pIC50,[1],6.32
same,pEC50,[2],6.09
CCNC[C@]1(C)CN(C(=O)OC)C[C@H]1c1ccc(OC)c(OC2Cc3ccccc3C2)c1 [Example 28],pIC50,[1],6.23
same,pEC50,[2],5.86
